Holding throughout (assay): NCI anticancer screen, dose series, 48 h
Assay [1] deals with 786-0.
Assay [2] deals with HCT-15.
For assay [3], the system named is HOP-62.
Assay [4] concerns HT-29.
For assay [5], the system named is IGROV-1.
Assay [6] has as its system MDA-N.
The test system of assay [7] is MOLT-4.
The test system of assay [8] is NCI-H23.
Assay [9] concerns OVCAR-5.
Assay [10] deals with OVCAR-8.
The test system of assay [11] is SF-295.
The test system of assay [12] is SK-OV-3.
Assay [13] has as its system SN12C.
Assay [14] relates to SW-620.
In assay [15] the test system is UACC-257.
For assay [16], the system named is UACC-62.
Assay [17] concerns A498.
Assay [18] relates to Malme-3M.
Assay [19] has as its system TK-10.

SMILES strings stand for the structures.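 Tested at 5 concentrations; 48 h exposure; 96-well plates; endpoints linearly interpolated, else capped at highest concentration. GI50 = concentration required for 50% inhibition of growth.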 Activity calls are given as the source filed them. No stated cut-off is given here; in the data, active = GI50 up to about 1.1 µM and inactive = higher.

This note sets out measurements from ChEMBL document CHEMBL1201862, “PubChem BioAssay data set” (2004).

As for `Clc1cc(N/N=C(/c2ccccc2)c2ncccn2)ncn1`, the GI50 in assay [1] is 21.7 µM (inactive); in assay [2], 17.9 µM; in assay [3] it was 26.8 µM (inactive); in assay [4], 2.58 µM (inactive); in [5] it was 17.5 µM (inactive); in [6], 62.8 µM (inactive). Moreover, the GI50 in [7] was 5.87 µM (inactive); in assay [8], 21.4 µM (inactive); in [9] it was 85.5 µM (inactive); in assay [10] it was 16.5 µM (inactive); in [11] it was 24.6 µM (inactive); in [12] it was 19.1 µM (inactive). The GI50 is 29.2 µM (inactive) in assay [13], 7.18 µM (inactive) in assay [14], 20.9 µM (inactive) in assay [15] and 32.2 µM (inactive) in [16].
In the case of `CC(C)=C1CCC(CN2CCOCC2)C1=O` (centres undefined), the GI50 is 3.79 µM (inactive) in [1]; 33.7 µM (inactive) in assay [17]; 5.22 µM in [2]; > 55.5 µM (inactive) in assay [3]; 8.65 µM (inactive) in assay [4]; 20.3 µM (inactive) in [5]. The GI50 in [6] is 19.1 µM (inactive); in assay [7] it was 2.34 µM (inactive); in assay [18], 3.58 µM (inactive); in assay [8], 17.7 µM (inactive); in assay [9], 18.2 µM (inactive); in [10], 7.55 µM (inactive). Moreover, the GI50 is 98.4 µM (inactive) in assay [11]; > 100 µM (inactive) in assay [12]; 8.59 µM (inactive) in [13]; 1.76 µM (inactive) in [14]; 6.21 µM (inactive) in assay [19]; 16.2 µM (inactive) in assay [15]. Also, the GI50 in assay [16] is 17 µM (inactive).
For `CC(=O)Nc1ccc(NCC(=O)Nn2cnc3ccc(S(=O)(=O)Nc4ccc(NC(C)=O)cc4)cc3c2=O)cc1`, the GI50 in [1] was > 100 µM (inactive); in [2], over 100 µM; in assay [3] it was > 100 µM (inactive); in [4], > 100 µM (inactive); in assay [5], > 100 µM (inactive); in [6] it was > 100 µM (inactive). Besides, the GI50 in assay [7], in assay [18], in [8], in [9], in assay [10] and in [11] was > 100 µM (inactive) throughout. Besides, the GI50 in assay [12], in assay [13], in [14], in [19], in [15] and in [16] was > 100 µM (inactive) in each case.
Take `CCc1ccc2oc(=O)ccc2c1`: the GI50 in assay [1] was > 100 µM (inactive); in assay [17] it was > 100 µM (inactive); in [2], over 100 µM; in [3], > 100 µM (inactive); in assay [4], > 100 µM (inactive); in [5], > 100 µM (inactive). Besides, the GI50 in assay [6], in assay [7], in assay [18], in assay [8], in assay [9] and in assay [10] was > 100 µM (inactive) each time. Also, the GI50 in assay [11] is > 100 µM (inactive); in assay [13], > 100 µM (inactive); in assay [14], > 100 µM (inactive); in assay [15], > 100 µM (inactive); in assay [16], 35.7 µM (inactive).
For `COc1cc(/C=C(\C#N)c2ccccn2)cc(Br)c1O`, the GI50 is 68.7 µM (inactive) in assay [1]; 21.9 µM in assay [2]; 28.8 µM (inactive) in assay [3]; 40.1 µM (inactive) in [4]; 54.7 µM (inactive) in [5]; > 100 µM (inactive) in assay [6]. The GI50 in [7] is 35 µM (inactive); in [18], 26.4 µM (inactive); in assay [8], 31 µM (inactive); in assay [9], > 100 µM (inactive); in assay [10] it was 65.3 µM (inactive); in [11], 37.8 µM (inactive). In addition, the GI50 in assay [12] is 55.1 µM (inactive); in assay [13], 45.2 µM (inactive); in [14], 18.4 µM (inactive); in [19], > 100 µM (inactive); in assay [15], 48.8 µM (inactive); in assay [16], 55.7 µM (inactive).
For `CCn1c2c(c3ccccc31)[C@@H](c1ccc(Cl)cc1)CC1C(=O)N(c3ccccc3)C(=O)C21` (some centres undefined), the GI50 in assay [1] was > 100 µM (inactive); in [17], 69.7 µM (inactive); in assay [2] it was over 100 µM; in [3], 85.5 µM (inactive); in [4] it was 65.5 µM (inactive); in assay [5], > 100 µM (inactive). For the same molecule, the GI50 in assay [7] is 42.7 µM (inactive); in assay [18], 70.6 µM (inactive); in assay [8] it was 95.3 µM (inactive); in assay [9], > 100 µM (inactive); in assay [10] it was > 100 µM (inactive); in [11], 59.3 µM (inactive). The GI50 in assay [12] is > 100 µM (inactive); in assay [13] it was 75.5 µM (inactive); in assay [14], > 100 µM (inactive); in assay [19], > 100 µM (inactive); in assay [15], > 100 µM (inactive); in assay [16] it was 51.2 µM (inactive).
Take `N#Cc1c(-c2ccc(Cl)cc2)c(C#N)c(=O)n(NS(=O)(=O)c2ccccc2)c1S`: the GI50 in [1] was 17.2 µM (inactive); in assay [17], 27.7 µM (inactive); in assay [2] it was 21.9 µM; in assay [5] it was 21.6 µM (inactive); in [6], 25.9 µM (inactive); in assay [7], 21.6 µM (inactive). The GI50 in assay [18] is 25.9 µM (inactive); in [8] it was 39.3 µM (inactive); in assay [9], 54.7 µM (inactive); in assay [10], 19.9 µM (inactive); in assay [11] it was 34.2 µM (inactive); in [12], 87.5 µM (inactive). The GI50 was 25.2 µM (inactive) in assay [13]; 26.2 µM (inactive) in assay [14]; 18.5 µM (inactive) in assay [19]; 46.7 µM (inactive) in assay [15]; 19.1 µM (inactive) in [16].
Take `C=CCOC(=O)C1CCC(=O)N1C(=O)C(Cl)Cl` (centres undefined): the GI50 was > 100 µM (inactive) in assay [1]; > 100 µM (inactive) in assay [17]; over 100 µM in assay [2]; > 100 µM (inactive) in [3]; > 100 µM (inactive) in assay [4]; > 100 µM (inactive) in assay [5]. The GI50 in assay [7], in [18], in assay [8], in [9], in assay [10] and in [11] was > 100 µM (inactive) each time. Also, the GI50 in [12], in assay [13], in [14], in [19], in [15] and in [16] was > 100 µM (inactive) throughout.
`CC1=Cc2cccc(C)c2C(=O)C1=O` [O-HIBISCANONE]: the GI50 was 2.88 µM (inactive) in [1]; 17.1 µM (inactive) in assay [17]; 6.11 µM in assay [2]; 17.5 µM (inactive) in assay [3]; 2.79 µM (inactive) in assay [4]; 15.6 µM (inactive) in [5]. In addition, the GI50 in [7] is 0.52 µM (active); in assay [18] it was 1.8 µM (inactive); in assay [8], 11.1 µM (inactive); in [9], 19 µM (inactive); in [10] it was 5.85 µM (inactive); in assay [11], 5.14 µM (inactive). For the same molecule, the GI50 in assay [12] is 18.5 µM (inactive); in assay [13], 19.5 µM (inactive); in assay [14], 1.28 µM (inactive); in [19], 2.39 µM (inactive); in assay [15], 2.16 µM (inactive); in assay [16], 5.58 µM (inactive).
Regarding `COc1ccc(C2N(c3ccc(C)c(N=C=O)c3)C(=O)N3C(c4ccc(OC)cc4)N(c4ccc(C)c(N=C=O)c4)C(=O)N23)cc1` (centres undefined), the GI50 was > 100 µM (inactive) in assay [1]; 44 µM (inactive) in assay [17]; over 100 µM in assay [2]; > 100 µM (inactive) in [3]; > 100 µM (inactive) in [4]; 38.9 µM (inactive) in [5]. Besides, the GI50 in [6] is > 100 µM (inactive); in assay [7], > 100 µM (inactive); in [18], 25.8 µM (inactive); in [8], > 100 µM (inactive); in assay [9] it was > 100 µM (inactive); in assay [10], > 100 µM (inactive). In addition, the GI50 in [11], in assay [13], in [14], in [19] and in assay [15] was > 100 µM (inactive) each time.
Regarding `CC[N+](C)(CC)CCNC(=O)C(O)(c1ccccc1)c1ccccc1`, the GI50 in assay [1] was > 100 µM (inactive); in assay [2], over 100 µM; in [3], > 100 µM (inactive); in assay [4] it was > 100 µM (inactive); in [5] it was > 100 µM (inactive); in assay [6], > 100 µM (inactive). Also, the GI50 in assay [7], in [18], in assay [8], in assay [9], in assay [10] and in [11] was > 100 µM (inactive) each time. Further, the GI50 in assay [12], in [13], in [14], in [19], in assay [15] and in [16] was > 100 µM (inactive) throughout.
